Where “and” joins values, the source holds several entries; their conditions need not be identical. Equal values may be shown once.
Key:
[1] = Tolerability in mice: body weight, behavior, residual [^3H]dextran (BBB integrity); type: in vivo; conditions: mouse, data not shown
[2] = set-up: method as in PMID 2339131; conditions: mice receiving over 0.1 μg every other day for 2 weeks; cited from earlier work
TM-BBB4 cells [3] = test: In vitro internalization (acid-resistant binding) of [^125I]hAβ(1-40) in TM-BBB4 cells; type: cell-based, mouse
Method: The TM-BBB4 cell line, established from transgenic mice harboring the temperature-sensitive SV40 large T-antigen gene, was used in this study. TM-BBB4 cells were cultured at 33°C in Dulbecco's modified Eagle's medium (DMEM; Nissui Pharmaceutical Co., Tokyo, Japan), supplemented with 20 mM NaHCO3, 2 mM L-glutamine, 15 ng/ml endothelial cell growth factor, 100 U/ml benzyl penicillin, […] streptomycin sulfate, and 10% fetal bovine serum (Moregate, Bulimba, Australia) in an atmosphere of 95% air and 5% CO2.
TM-BBB4 cells were seeded on 24-well plates (Becton Dickinson, Bedford, MA, USA) at a density of 1.0 × 10^5 cells/2 cm^2/well and cultured for 24 h. The cells were treated with the indicated concentrations of forskolin and U0126 or vehicle for 24 h, and then internalization of [^125I]hAβ(1-40) into TM-BBB4 cells was examined as previously described. Briefly, the extent of TM-BBB4 cell-[^125I]hAβ(1-40) (0.15 μCi/200 μl in ECF buffer) binding was measured for 3 min at 37°C. After the indicated times, binding was terminated by removing the solution, and the cells were washed three times with 1 ml ice-cold ECF buffer. The cells were then incubated with 1 ml ice-cold acetate-barbital buffer (28 mM CH3COONa, 120 mM NaCl, 20 mM barbital sodium (pH 3.0) and 360 mOsm/kg) for 20 min at 4°C to remove [^125I]hAβ(1-40) bound to the cell surface. After incubation, the buffer was then recovered (acid-soluble fraction) and the cells were subsequently washed three times with ice-cold acetate-barbital buffer.
(§1) Acid-resistant binding represents the amount of internalized [^125I]hAβ(1-40) in the TM-BBB4 cells. The cells were solubilized with 200 μl of 5 M NaOH overnight and neutralized with 200 μl of 5 M HCl. The ^125I radioactivity was measured using a γ-counter (ART310, Aloka, Tokyo, Japan). The protein content of the cultured cells was measured using a DC protein assay kit (Bio-Rad, Hercules, CA, USA) with bovine serum albumin as a standard.

[4] = after i.p. administration; cited from earlier work
From the text: Reduction of Aβ in the CNS is considered to be a primary therapeutic target for AD.

[5] = tested on: brain-to-blood [^125I]hAβ(1-40) efflux transport across the BBB; test: Brain Efflux Index (BEI) study: elimination of [^125I]hAβ(1-40) after intracerebral microinjection; type: in vivo; conditions: for decrease of percentage of [^125I]hAβ(1-40) remaining in ipsilateral cerebrum versus vehicle-treated control: n = 5; for effect on percentage of [^125I]hAβ(1-40) remaining versus vehicle-treated control: single i.p. 1 μg/mouse
Method: Control mice were injected i.p. with 100 μL of each vehicle solution. After an indicated time (24, 48, or 72 h), the in vivo brain elimination experiments were performed using the intracerebral microinjection technique. Briefly, mice were anesthetized with an intramuscular injection of xylazine (1.22 mg/kg) and ketamine (125 mg/kg), and placed in a stereotaxic frame (SRS-6; Narishige, Tokyo, Japan) that determines the coordinates of the mouse brain coinciding with the secondary somatosensory cortex 2 (S2) region. A small hole was made 3.8 mm lateral to the bregma, and a fine injection needle fitted to a 5.0 μl microsyringe (Hamilton, Reno, NE, USA) was advanced to a depth of 2.5 mm. The solution of [^125I]hAβ(1-40) was freshly prepared from lyophilized [^125I]hAβ(1-40) immediately before each experiment. Lyophilized [^125I]hAβ(1-40) was solubilized in H2O and then added to an equal volume of 2-fold concentration of extracellular fluid (ECF) buffer (244 mM NaCl, 50 mM NaHCO3, 6 mM KCl, 2.8 mM CaCl2, 2.4 mM MgSO4, 0.8 mM K2HPO4, 20 mM D-glucose, and 20 mM HEPES, pH 7.4). […] The applied solution (0.3 μl) containing [^125I]hAβ(1-40) and [^3H]dextran in an ECF buffer was administered into the S2 region over a period of 30 sec. After microinjection, the microsyringe was left in place for 4 min to minimize any backflow. At 5, 30 or 60 min after microinjection, ipsilateral (left) and contralateral (right) cerebrum and cerebellum were excised and dissolved in 2.0 ml 2 M NaOH at 60°C for 1 h. The ^125I and ^3H radioactivities of the samples were measured in a γ-counter (ART300, Aloka, Tokyo, Japan) for 3 min and a liquid scintillation counter (TRI-CARB2050CA, Packard Instruments, Meriden, CT, USA) for 5 min, respectively. The BEI was defined by Equation (1), and the percentage of substrate remaining in the ipsilateral cerebrum (100-BEI) was determined using Equation (2): [drawing 1] [drawing 2]
The apparent elimination rate constant (kel) was determined from the slope given by fitting a semilogarithmic plot of (100-BEI) versus time, using the nonlinear least-squares regression analysis program MULTI [27].

[6] = tested on: elimination of [^125I]hAβ(1-40) from rat brain; conditions: cited from earlier work
Method: The present study examined the [^125I]hAβ(1-40) elimination from the brain for 60 min, and considerable degradation of injected [^125I]hAβ(1-40) might occur during this period.

TM-BBB4 cells [7] = test: Protein content of TM-BBB4 cells after the uptake (DC protein assay); type: cell-based, mouse
Method: as §1

In the case of C=C1/C(=C\C=C2/CCC[C@]3(C)[C@@H]([C@H](C)CCCC(C)(C)O)CC[C@@H]23)C[C@@H](O)C[C@@H]1O [1,25(OH)2D3, 1α,25-dihydroxyvitamin D3], the “adverse effects during repeated treatment” value ([1]; 1 μg/day, from day 4) is given as “reduced body weight and abnormal behavior”, the body weight ([1]; single i.p. dose, up to 72 h after administration) is given as “No significant decrease” and the “hypercalcemia (calcium level)” value [2] is given as “over 12 mg/dL”. The “effect on [^125I]hAβ(1-40) internalization by TM-BBB4” value (TM-BBB4 cells [3]; data not shown) was “failed to provide consistent results”, the “time at which plasma concentration reaches a maximum” value [4] was no more than 2 h and the “time at which plasma concentration returns to baseline” value [4] was 24 h. The “initial percentage of [^125I]hAβ(1-40) remaining in the mouse brain” value ([5]; 1 μg/mouse i.p., 24 h, not significantly different from vehicle (114%)) was 118%, the “percentage of [^125I]hAβ(1-40) remaining in brain compared with vehicle-treatment group” value ([5]; mouse, 1 μg/mouse i.p., 24 h, 60 min after microinjection, time-profile experiment (Figure 1A)) was “significantly lower” and the “increase of [^125I]hAβ(1-40) elimination rate constant versus vehicle-treated group” value ([5]; mouse, 1 μg/mouse i.p., 24 h after injection, p < 0.01) was 1.3 fold and 1.29 fold. The “decrease of percentage of [^125I]hAβ(1-40) remaining in ipsilateral cerebrum versus vehicle-treated control” value ([5]; mouse, single i.p. 0.2 μg/mouse, 24 h, 60 min after microinjection) was 12.9%, the “effect on percentage of [^125I]hAβ(1-40) remaining versus vehicle-treated control” value ([5]; mouse, 24 h after administration, 60 min after microinjection, n = 4-5 (Figure 2B)) was “significant reduction” and the “effect on percentage of [^125I]hAβ(1-40) remaining versus vehicle-treated control” value ([5]; mouse, 48 h after administration, 60 min after microinjection, n = 4-5) was “no significant reduction”. For the same compound, the “effect on percentage of [^125I]hAβ(1-40) remaining versus vehicle-treated control” value ([5]; mouse, 72 h after administration, 60 min after microinjection, n = 4-5) was “no significant reduction”, the “decrease of percentage of [^125I]hAβ(1-40) remaining in ipsilateral cerebrum versus vehicle-treated control” value ([5]; mouse, single i.p. 5 μg/mouse, 24 h, 60 min after microinjection) was 19.5% and the “apparent elimination rate constant (kel) of [^125I]hAβ(1-40) across the BBB” value ([5]; mouse, single i.p. dose 1 μg/mouse, 24 h before microinjection, slope of (100-BEI) time profile 5-60 min, mean ± SD, n = 3-5, vehicle group 1.85 × 10^-2) was 0.0238 ± 0.0009 min⁻¹.

For N[C@@H](Cc1ccc(O)cc1)C(=O)O [L-tyrosine], the “inhibition of elimination of [^125I]hAβ(1-40) from rat brain” value [6] is given as “not significantly inhibited”.

For N#CC(=C(/N)Sc1ccccc1N)/C(C#N)=C(/N)Sc1ccccc1N [U0126], the “effect on forskolin-induced enhancement of [^125I]hAβ(1-40) acid-resistant binding” value (TM-BBB4 cells [3]; U0126 25 μM with forskolin 10 μM for 24 h, [^125I]hAβ(1-40) 0.4 nM, 3 min, n = 4) was “suppressed”, the “reduction of acid-resistant binding of [^125I]hAβ(1-40) compared with the control” value (TM-BBB4 cells [3]; pre-treatment with U0126 alone, 25 μM, 24 h, 3 min uptake, n = 4) was 11.2% and the “protein content of the cells after the uptake” value (TM-BBB4 cells [7]; 24 h treatment (U0126 25 μM, forskolin 10 μM), mean ± SEM, n = 4, control 89.8 ± 6.0) was 72.0 ± 7.0 μg protein/well. For the same compound, the “reduction of protein content of the cells after the uptake” value (TM-BBB4 cells [7]; U0126 25 μM, 24 h, versus control 89.8 ± 6.0 μg protein/well) was 19.8%.

With C=C[C@@]1(C)CC(=O)[C@]2(O)[C@@]3(C)[C@@H](O)CCC(C)(C)[C@@H]3[C@H](O)[C@H](OC(C)=O)[C@@]2(C)O1 [forskolin] the “effect on acid-resistant binding (internalization) of [^125I]hAβ(1-40) by TM-BBB4 cells” value (TM-BBB4 cells [3]; pre-treatment 10 μM for 24 h, 0.1% DMSO, [^125I]hAβ(1-40) 0.4 nM, 3 min, 37°C, n = 4) was “significantly increased”, the “decrease of percentage of [^125I]hAβ(1-40) remaining in mouse brain versus vehicle-treated group” value ([5]; single i.p. 2.3 μg/mouse, 24 h, 60 min after microinjection, n = 4-5) was 16.4% and the “decrease of percentage of [^125I]hAβ(1-40) remaining in mouse brain versus vehicle-treated group” value ([5]; single i.p. 23 μg/mouse, 24 h, 60 min after microinjection, n = 4-5) was 16.4%.

In the case of C[C@H](/C=C/[C@H](C)C(C)(C)O)[C@H]1CC[C@H]2/C(=C/C=C3C[C@@H](O)C[C@H](O)C3)CCC[C@]12C [paricalcitol], the “effect on [^125I]hAβ(1-40) elimination from mouse brain” value ([5]; data not shown) is reported as “did not significantly enhance”.

Source: publication PMC3162579 (Fluids and Barriers of the CNS, 2011)
